This note sets out measurements from publication PMC12040169 (PLOS Biology, 2025).

A short description of the data set: in vitro. The conditions noted are these: human, hela cells, % viability.

Turning to `CC(C)(C)OC(=O)N1CCC[C@@H](C(=O)c2cccnc2)C1` [CBK284284], the viability – broadly, a read-out of living cells in per cent, often relative to untreated cells – at 28.5 h, 10 µM is 98.2%.

In the case of `CC1(C)CCCN(Cc2nnnn2-c2ccc(S(C)(=O)=O)cc2)C1` [CBK306181], the viability at 28.5 h, 10 µM worked out at 91.7%.

For `O=C(CCNS(=O)(=O)c1ccc(Cl)cc1)Nc1ccncc1` [CBK269244], the viability at 28.5 h, 10 µM is 99.4%. Take `CC(C)(C)CNc1ccc(S(=O)(=O)N2CCOC2=O)cc1` [CBK028347]: the viability at 28.5 h, 10 µM was 113%. With `Cc1ccc(S(=O)(=O)Nc2ccc(C3(c4ccc(NS(=O)(=O)c5ccc(C)cc5)cc4)c4ccccc4C(=O)c4ccccc43)cc2)cc1` [CBK261155], the viability at 28.5 h, 10 µM was 111%. Turning to `CC(Oc1cccc(Cl)c1)C(=O)N/N=C/c1cccc(Oc2ccccc2)c1` (centres unmarked) [CBK262113], the viability at 28.5 h, 10 µM amounted to 77.5%. The same measure, in the same setting: next, `Cc1cc(C)n(CC(=O)Nc2cccc(CCc3ccncc3)c2)c(=O)n1` [CBK285555]: 105%.

For the compound `Nc1ncc(-c2cccc([N+](=O)[O-])c2)nc1-c1ccc(O)cc1` [CBK122507], the viability at 28.5 h, 10 µM is 101%. As to `CC(O)CNCCCOc1ccccc1-c1ccccc1` (centres unmarked) [CBK268633G], the viability at 28.5 h, 10 µM worked out at 97.6%. For the compound `O=C(NC(=O)c1ccc2ccccc2c1)Nc1ccc(Br)cc1` [CBK261735], the viability at 28.5 h, 10 µM was found to be 107%. The same measure, in the same setting: in the case of `CC(=O)NCCOc1nccnc1OCc1ccc(Cl)c(Cl)c1` [CBK161582] it was 96.4%; in that of `CCOc1nc(Nc2nc(-c3ccccc3)cs2)nc(OCC)n1` [CBK262442], 98.1%. Still for that read-out and setting: next, `Cc1cn2c3c(=O)n(CCN4CCCCC4)c(=O)n(C)c3nc2n1CC1CCCO1` (centres unmarked) [CBK269820]: 91.9%; `CCCS(=O)(=O)Nc1cccc2[nH]ccc12` [CBK159488]: 97.5%. Turning to `CCN(Cc1ccncc1)C(=O)NCC1CCCCC1` [CBK155132], the viability at 28.5 h, 10 µM was 103%.

As for `CC(C)C(=O)Nc1cc2cccnc2c(-c2ccsc2)n1` [CBK081259], the viability at 28.5 h, 10 µM was determined as 100%. As for `CCOC(=O)N1CCC2(CC1)OCc1cc(-c3cccc(F)c3)ccc1O2` [CBK060987], the viability at 28.5 h, 10 µM (bulk resorufin, single well) came to 104%. Take `Cc1nnc(SCC(=O)N2CCN(c3ccc(Cl)cc3)CC2)s1` [CBK307389]: the viability at 28.5 h, 10 µM came to 87.5%.

`COc1cc(OC)c(NC(=O)C(C)Oc2cccc(C)c2)cc1Cl` (centres unmarked) [CBK268646]: the viability at 28.5 h, 10 µM stood at 107%.

Take `O=c1cc(N2CCOCC2)oc2cccc(O)c12` [CBK016536]: the viability at 28.5 h, 10 µM was 91.3%. Same read-out and setting: in the case of `CN(CCO)S(=O)(=O)c1cccc(C(=O)O)c1` [CBK266657] it was 89.4%; in that of `CCOc1cc(NC2CCN(C(=O)C3CCCCC3(C)C)CC2)ncn1` (centres unmarked) [CBK305505], 105%.

Take `O=C(NCCOc1cccc(Cl)c1Cl)c1ccccc1-c1ccccc1` [CBK267390]: the viability at 28.5 h, 10 µM stood at 40.6%. On the same count and under the same terms, in the case of `C=CCn1c(S)nnc1CCSCc1ccccc1` [CBK268849] it was 95.1%; in that of `COc1ccc(OC(=O)COc2nc3c(C)cc(C)nc3[nH]2)cc1` [CBK269290], 106%; in that of `O=C1CSC(Nc2nc(-c3ccccc3)cs2)=N1` [CBK026880], 104%. Same read-out and setting: in the case of `O=C(Nc1cccc(-c2nnc3n2CCCCC3)c1)[C@@H]1CCCN1C(=O)c1cccs1` [CBK297090] it was 109%. Turning to `CC(C)(C)c1n[nH]c(C2CN(C(=O)CCc3cscn3)CCO2)n1` (centres unmarked) [CBK305205], the viability at 28.5 h, 10 µM is 89.7%. On the same count and under the same terms, next, `CN(C)c1ccc(-c2nccnc2NCc2ccc(S(C)(=O)=O)cc2)cc1` [CBK036902]: 104%.

Regarding `O=C(Cc1c[nH]c2ccccc12)N1CCC2(CCCN(C(=O)c3cccnc3)C2)C1` (centres unmarked) [CBK131604], the viability at 28.5 h, 10 µM amounted to 103%. With `CCN(CC)C(=O)c1cnoc1-c1ccc(Br)cc1` [CBK153725], the viability at 28.5 h, 10 µM was determined as 94.4%. The same measure, in the same setting: in the case of `CC(C)C[C@@H]1N[C@H](C(=O)NCC2CCOCC2)Cc2c[nH]c3cccc1c23` [CBK289427] it was 103%. On the same count and under the same terms, next, `COc1cc(CNc2cc(-c3ccc4c(c3)OCO4)ncn2)cc(OC)c1OC` [CBK037822]: 98.9%; `CC(=O)Nc1cc2nc3ccccc3nc2cc1NC(C)=O` [CBK261018]: 92.6%.

For `Cc1ccc(C2=CCN(CC(=O)Nc3ccc(N(C)C)cc3)CC2)o1` [CBK283604], the viability at 28.5 h, 10 µM amounted to 95.5%. Regarding `COC(=O)c1c(NC(=S)Nc2cccc(S(=O)(=O)N3CCOCC3)c2)sc2c1CCC2` [CBK267054], the viability at 28.5 h, 10 µM was found to be 93.8%.

In the case of `Cn1c(N2CCC(C(=O)NCC3CC3)CC2)nc2ccccc21` [CBK283957], the viability at 28.5 h, 10 µM came to 91.6%. Still for that read-out and setting: in the case of `CCCCNc1ncncc1-c1ccc(Br)cc1` [CBK005014C] it was 88.6%. The same measure, in the same setting: next, `CCOC(=O)C1CCCN(S(=O)(=O)c2sc3ccc(Cl)cc3c2C)C1` (centres unmarked) [CBK154797]: 97.2%; `CS(=O)(=O)Nc1ccc(CNC(=O)C2(c3ccccc3)CCCC2)cc1` [CBK161525]: 101%. The same measure, in the same setting: in the case of `CC(c1nc(N)nc(N(C)C)n1)N(C)CCOc1ccccc1F` (centres unmarked) [CBK306053] it was 88.2%; in that of `CN(C)CCCNC(=S)NC(=O)c1ccccc1` [CBK265317], 117%; in that of `CC(C)NS(=O)(=O)c1ccc(NC(=O)Cc2cccc3ccccc23)cc1` [CBK268102], 94.8%.

Take `CC12CCC(C(=O)O)(c3nc4c(ccc5ncccc54)nc31)C2(C)C` (centres unmarked) [CBK269470]: the viability at 28.5 h, 10 µM was 91.1%. As for `N#CCCN(C(=O)Nc1ccc(Cl)cc1)C1CCCCC1` [CBK156365], the viability at 28.5 h, 10 µM came to 89.1%.

For `COc1ccc(CNC(=O)c2cc(S(=O)(=O)N3CCCC3)c[nH]2)cc1` [CBK304601], the viability at 28.5 h, 10 µM amounted to 102%.

As to `Nc1nnc(CCS(=O)(=O)c2ccc(Br)cc2)s1` [CBK026286], the viability at 28.5 h, 10 µM amounted to 109%. `COc1ccc(NC(=O)N[C@@H]2C=C[C@@H](c3c(C)nn(CCC#N)c3C)C2)cc1` [CBK288804]: the viability at 28.5 h, 10 µM came to 94.2%. Same read-out and setting: in the case of `Cc1cccc(N(CC(=O)NCc2ccco2)S(=O)(=O)c2ccccc2)c1` [CBK263571] it was 87.7%; in that of `COc1cc(C(=O)N2CCCC3(CCN(C(=O)c4ccoc4)C3)C2)cc(OC)c1OC` (centres unmarked) [CBK131637], 114%; in that of `N#Cc1cccc(C(=O)N2CCC(NC(=O)c3ccc(F)cc3)CC2)c1` [CBK305717], 111%.

On to `O=C(CCn1cnc2ccccc2c1=O)Nc1ccc(S(=O)(=O)N2CCOCC2)cc1` [CBK267645], for which the viability at 28.5 h, 10 µM was found to be 98.9%. Still for that read-out and setting: next, `CC1CCN(S(=O)(=O)c2ccc(NC(=O)CCN3C(=O)c4ccccc4C3=O)cc2)CC1` [CBK265572]: 98.8%; `Cc1noc(CN2CCN(c3ccc4nnc(C(F)(F)F)n4n3)CC2)n1` [CBK305566]: 93.3%; `CO[C@H]1CC[C@H](C(=O)NC(c2ccccc2)c2nccn2C)CC1` (some centres unmarked) [CBK283852]: 93.8%. On the same count and under the same terms, in the case of `CC1(c2ccccc2)CC(C)(C)N(C(=O)C2CCCO2)c2ccccc21` (centres unmarked) [CBK059175] it was 97.5%; in that of `C[C@H](Nc1cncc(-c2ccc3ccccc3c2)n1)c1ccccc1` [CBK065799], 108%.

Turning to `CN(C)CCN(CC#Cc1ccccc1)CC#Cc1ccccc1` [CBK265035C], the viability at 28.5 h, 10 µM stood at 116%. `Cc1nc2sccn2c(=O)c1NC(=O)c1ccccn1` [CBK287665]: the viability at 28.5 h, 10 µM amounted to 87.2%.

Take `Cc1cc(S(=O)(=O)NC2CCCCC2)ccc1OCC(=O)O` [CBK267832]: the viability at 28.5 h, 10 µM turned out to be 104%. The same measure, in the same setting: next, `CN1CCCC(OC(=O)C2CCCCC2)C1` (centres unmarked) [CBK090234]: 104%; `Cc1cc(C(C)(C)C)ccc1OCCNCCN` [CBK265097G]: 91.3%; `O=C(Cc1ccsc1)N1C[C@@H]2CCCCN(CC3CC3)[C@@H]2C1` [CBK285507]: 104%.

On to `CC(=O)Nc1ccc(C(=O)N2CCC(c3cccc(Cc4ccccc4Cl)n3)CC2)cc1` [CBK286111], for which the viability at 28.5 h, 10 µM came out at 96.2%.

Turning to `COc1ccccc1CC(=O)N1[C@H](Cc2ccccc2)C[C@@H]2NCCCCC[C@H]21` [CBK285978], the viability at 28.5 h, 10 µM was 96.3%. The same measure, in the same setting: in the case of `COc1cccc(C(=O)Nc2nn(Cc3ccc(C(F)(F)F)cc3)c3ccccc23)c1` [CBK048273] it was 83.9%. The same measure, in the same setting: in the case of `CCC(CC)C(=O)Nc1nc(OC)cnc1-c1cc(Cl)cc(Cl)c1` [CBK145338] it was 95.8%. On to `C=CCN1C(=O)CC2(C1=O)C(=O)N(Cc1csc(-c3ccccc3)n1)c1ccc(Cl)cc12` (centres unmarked) [CBK075445], for which the viability at 28.5 h, 10 µM was 99.6%. For `COc1ccc2[nH]c3c(c2c1)CCNC31CCN(CCCN2C(=O)C3CCCCC3C2=O)C1` (centres unmarked) [CBK059518], the viability at 28.5 h, 10 µM was determined as 88.9%. Still for that read-out and setting: next, `O=C(NCC1CCN(c2ccc(F)c(F)c2)C1)c1c[nH]nc1C1CC1` (centres unmarked) [CBK305409]: 91%; `Cc1ccc(NC(=O)/C(C#N)=C/c2ccc(-c3ccccc3C(=O)O)o2)cc1Cl` [CBK263208]: 102%; `Cc1nn(C(C)CC(=O)Nc2ccnn2C(C)C)c(C)c1Cl` (centres unmarked) [CBK281537]: 95.8%. Consider `COc1nccc(N2CCC3(CC(=O)NC3=O)C2)c1C#N` (centres unmarked) [CBK307246], for which the viability at 28.5 h, 10 µM was found to be 108%. Consider `Cc1ccc(S(N)(=O)=O)cc1NC(=O)c1ccc(Br)o1` [CBK003693], for which the viability at 28.5 h, 10 µM is 91.6%. The same measure, in the same setting: in the case of `COc1ccc(C=Cc2cc(C(=O)O)c3ccccc3n2)cc1OC(F)F` [CBK296953] it was 85.9%. Same read-out and setting: in the case of `Cn1ccnc1C1(O)CCN(C(=O)Nc2ccccc2F)CC1` [CBK282280] it was 112%.

For `O=c1c2sccc2[nH]c(=S)n1CCc1ccccc1` [CBK288486], the viability at 28.5 h, 10 µM came to 118%. For `COc1ccc(S(=O)(=O)N2CCC(C(=O)O)CC2)cc1C(=O)O` [CBK092181], the viability at 28.5 h, 10 µM amounted to 91.4%.

In the case of `O=C(CCCc1nc(-c2ccccc2Cl)no1)Nc1cccnc1` [CBK269122], the viability at 28.5 h, 10 µM was determined as 91.6%. Regarding `O=C(CSc1ccc(Cl)cc1)Nc1cc(C(=O)O)cc(C(=O)O)c1` [CBK266531], the viability at 28.5 h, 10 µM worked out at 98.8%.
